Source: article PMC7044277 (Nature Communications, 2020)
Values joined by “and” are separate entries in the source; they are usually repeats but may differ in a detail not shown here. Equal values may be shown once.

Experiments:
[1] = target: DRD3 (Homo sapiens, UniProt P35462); test: β-arrestin2 recruitment (Tango); format: cell-based; conditions: for response, concentration-response data point (replicates): Fig_S10b, drug alone
[2] = target: DRD2 (D2 long receptor) wild-type (Homo sapiens, UniProt P14416); test: Radioligand competition binding, [3H]-N-methylspiperone, HEK293T membranes; conditions: DRD2; [3H]-methylspiperone (0.8-1.0 nM); read-out: Ki
[3] = target: DRD2 (D2 long receptor) (Homo sapiens, UniProt P14416); test: Gαi/o-mediated cAMP inhibition (GloSensor split-luciferase cAMP reporter), HEK293T; format: cell-based; conditions: DRD2;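 further: compounds applied 15 min at room temperature, then luciferin plus 400 nM isoproterenol to raise cAMP through endogenous β2-adrenergic receptors, luminescence read 15 min later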
[4] = system: serotonin receptor (subtype not given; reference agonist serotonin); test: β-arrestin2 recruitment (Tango), agonist activity, source data Fig_S10l; format: cell-based, human; conditions: drug alone
[5] = target: T1, DRD4 (D4.4 variant) (Homo sapiens, UniProt P21917); test: β-arrestin2 recruitment (Tango); format: cell-based; conditions: for Fig_S10c concentration-response source data, compound alone (replicates): agonist mode
T1 sequence (P21917 1-419): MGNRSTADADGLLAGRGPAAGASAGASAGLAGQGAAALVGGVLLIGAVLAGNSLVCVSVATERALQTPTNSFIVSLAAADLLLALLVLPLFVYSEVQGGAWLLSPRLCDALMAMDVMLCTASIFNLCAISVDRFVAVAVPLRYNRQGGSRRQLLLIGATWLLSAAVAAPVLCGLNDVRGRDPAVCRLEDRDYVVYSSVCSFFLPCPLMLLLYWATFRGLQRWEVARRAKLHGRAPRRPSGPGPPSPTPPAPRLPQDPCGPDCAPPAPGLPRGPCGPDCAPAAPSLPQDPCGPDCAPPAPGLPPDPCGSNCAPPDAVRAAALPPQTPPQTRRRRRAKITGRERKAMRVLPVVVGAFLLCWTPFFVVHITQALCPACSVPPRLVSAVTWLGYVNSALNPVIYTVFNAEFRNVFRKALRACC

Sequence of DRD3 (P35462 whole entry): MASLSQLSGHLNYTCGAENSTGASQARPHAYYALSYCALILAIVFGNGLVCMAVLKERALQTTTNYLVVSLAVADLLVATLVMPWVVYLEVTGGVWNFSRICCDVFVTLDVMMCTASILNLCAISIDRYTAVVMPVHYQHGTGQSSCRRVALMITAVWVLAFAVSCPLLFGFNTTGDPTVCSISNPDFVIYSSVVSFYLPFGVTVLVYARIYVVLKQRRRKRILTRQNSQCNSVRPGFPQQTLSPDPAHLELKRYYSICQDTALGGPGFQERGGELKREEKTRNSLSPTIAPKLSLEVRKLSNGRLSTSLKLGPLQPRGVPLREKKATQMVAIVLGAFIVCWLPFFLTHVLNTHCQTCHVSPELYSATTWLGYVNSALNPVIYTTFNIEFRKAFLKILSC
Sequence of DRD2 (D2 long receptor) (P14416 whole entry): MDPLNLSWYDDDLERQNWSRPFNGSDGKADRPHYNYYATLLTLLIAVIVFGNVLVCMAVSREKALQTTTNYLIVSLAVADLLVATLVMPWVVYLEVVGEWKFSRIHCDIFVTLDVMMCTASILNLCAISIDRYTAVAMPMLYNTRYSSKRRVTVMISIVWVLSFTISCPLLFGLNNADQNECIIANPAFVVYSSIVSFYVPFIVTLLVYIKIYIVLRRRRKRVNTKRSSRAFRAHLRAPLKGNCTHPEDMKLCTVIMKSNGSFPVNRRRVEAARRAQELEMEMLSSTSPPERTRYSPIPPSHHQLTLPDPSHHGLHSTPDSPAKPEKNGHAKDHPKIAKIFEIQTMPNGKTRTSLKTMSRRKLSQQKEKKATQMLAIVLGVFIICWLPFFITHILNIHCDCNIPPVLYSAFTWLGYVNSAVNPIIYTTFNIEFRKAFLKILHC
Sequence of DRD2 (D2 long receptor) wild-type (P14416 whole entry): as above

Compound: CCOc1cccc2cc([C@H](C)NCC3(O)CCCCC3)oc12 [O4SE6]
- β-arrestin2 recruitment agonist activity ([1]; DRD3, Tango): no detectable agonist activity
- EC50 ([1]; DRD3, Tango, read-out: EC50 ± SEM): > 10 µM
- response, concentration-response data point (replicates) ([1]; Log[Drug] -11): 0.5878 and 2.511 and 1.194 and 2.15 and 1.1907 and 4.631 and -3.875 and 11.6724 and 8.605
- response, concentration-response data point (replicates) ([1]; Log[Drug] -11.52): -0.276 and 0.7993 and -0.05881 and 1.198 and 0.07895 and 5.103 and 9.785 and 5.488 and 1.269
- response, concentration-response data point (replicates) ([1]; Log[Drug] -12): 1.3136 and 1.529 and -0.0652 and 0.03793 and 0.02727 and 3.808 and -3.9762 and 0.1686 and 1.294
- β-arrestin2 recruitment response at DRD3 (source data, replicate values) ([1]; Log[Drug] -6): 12.3452
- β-arrestin2 recruitment response at DRD3 (source data, replicate values) ([1]; Log[Drug] -6.52): 8.082 and 5.965 and 11.0149 and 19.9759 and 10.9551 and 9.221 and 9.014 and 7.197 and 16.9834
- β-arrestin2 recruitment response at DRD3 (source data, replicate values) ([1]; Log[Drug] -7): 8.647 and 6.889 and 5.419 and 8.207 and 5.755 and 6.315 and 4.579 and 5.095 and 7.56
- β-arrestin2 recruitment response at DRD3 (source data, replicate values) ([1]; Log[Drug] -7.52): 4.34 and 0.6022 and 1.762 and 2.508 and 1.167 and 1.071 and 1.816 and 2.855 and 3.052
- β-arrestin2 recruitment response at DRD3 (source data, replicate values) ([1]; Log[Drug] -8): 0.7316 and 0.3304 and 1.058 and 0.6729 and 0.7789 and 1.51 and 1.953 and 1.946 and 0.2868
- β-arrestin2 recruitment response at DRD3 (source data, replicate values) ([1]; Log[Drug] -8.52): 1.063 and 0.9542 and 0.434 and 0.6781 and 0.1637 and 0.2619 and 0.09244 and 0.8182 and 0.08985
- β-arrestin2 recruitment response at DRD3 (source data, replicate values) ([1]; Log[Drug] -9): -0.1872 and 1.166 and 0.6488 and 0.05773 and 0.4739 and 2.133 and -0.01123 and 0.2998 and -0.1097
- β-arrestin2 recruitment response at DRD3 (source data, replicate values) ([1]; Log[Drug] -9.52): 0.6514 and 0.02761 and -0.07333 and 1.513 and -0.1516 and 0.7866 and 1.233 and 1.648 and 0.09503
- β-arrestin2 recruitment response at DRD3 (source data, replicate values) ([1]; Log[Drug] -10): 1.257 and -0.3865 and -0.07075 and 0.2387 and 0.7918 and -0.1413 and 0.6108 and 0.3983 and -0.4207
- β-arrestin2 recruitment response at DRD3 (source data, replicate values) ([1]; Log[Drug] -10.52): 3.755 and 0.333 and -0.07333 and 2.441 and 0.1379 and -0.03791 and 0.1961 and 1.7564 and 0.1754
- β-arrestin2 recruitment response at DRD3 (source data, replicate values) ([1]; Log[Drug] -11): 0.522 and -0.07333 and -0.1743 and 0.2309 and 5.954 and 1.288 and -0.4182 and -0.01901 and 1.549
- β-arrestin2 recruitment response at DRD3 (source data, replicate values) ([1]; Log[Drug] -11.52): 1.588 and -0.07592 and 0.1337 and 0.3757 and 0.0448 and -0.03791 and 0.4061 and 1.448 and -0.2186
- Ki [2]: 4.57 µM
- EC50 ([3]; agonist, Gαi/o-mediated cAMP inhibition, read-out: EC50 ± SEM): 0.0185 µM
- G protein agonist activity ([3]; cAMP inhibition): selective DRD2 agonist
- Emax ([3]; HEK-293T, read-out: Emax relative to quinpirole response, cAMP inhibition): 91.9%
- response, Fig_S10l, replicate values ([4]; Log[Drug] -6.52): -2.091
- response, Fig_S10l, replicate values ([4]; Log[Drug] -7): -4.051 and -1.4228 and 2.693 and -6.163 and -1.5474 and -1.737 and -7.607 and -30.8777 and -6.976
- response, Fig_S10l, replicate values ([4]; Log[Drug] -7.52): -6.555 and -13.4609 and -0.98 and 4.322 and -3.875 and -2.693 and -7.055 and 7.925 and -34.7877
- response, Fig_S10l, replicate values ([4]; Log[Drug] -8): -3.792 and 35.132 and 2.507 and -11.1986 and -6.626 and 6.545 and -5.91 and -30.1494 and -3.473
- response, Fig_S10l, replicate values ([4]; Log[Drug] -8.52): 1.522 and -11.8615 and -2.437 and 12.7169 and -12.0506 and -8.665 and 20.957 and -2.778 and -10.1926
- response, Fig_S10l, replicate values ([4]; Log[Drug] -9): -4.295 and 4.13 and 0.2396 and -2.794 and 1.184 and 0.6235 and -1.336 and -7.8842 and -10.8253
- response, Fig_S10l, replicate values ([4]; Log[Drug] -9.52): 25.6854 and -2.744 and -6.32 and -4.5985 and -1.891 and 4.517 and 39.1804 and -4.421 and -3.844
- response, Fig_S10l, replicate values ([4]; Log[Drug] -10): -8.462 and 9.478 and -1.609 and 0.3049 and 15.9901 and -6.166 and 19.6932 and 12.6773 and 5.951
- response, Fig_S10l, replicate values ([4]; Log[Drug] -10.52): 6.737 and -12.3624 and -4.665 and -4.851 and -5.052 and -4.841 and 9.484 and 11.2587 and 10.4562
- response, Fig_S10l, replicate values ([4]; Log[Drug] -11): -35.1417 and -18.9513 and -15.3749 and 4.5184 and -0.5498 and 5.57 and -9.125 and -8.22 and 4.834
- response, Fig_S10l, replicate values ([4]; Log[Drug] -11.52): -5.783 and 6.132 and 4.745 and -13.0691 and -5.46 and 4.358 and -4.571 and 10.1317 and -13.0711
- response, Fig_S10l, replicate values ([4]; Log[Drug] -12): 6.173 and -15.2273 and 9.6789 and 4.873 and 7.863 and 1.749 and -9.697 and 0.6459 and 4.404
- EC50 ([5]; DRD4, Tango, read-out: EC50 ± SEM): > 10 µM
- Fig_S10c concentration-response source data, compound alone (replicates) ([5]; Log[Drug] -5): 6.217 and 2.763 and 2.001 and 1.287 and 1.775 and 4.058 and 4.003 and 0.06427 and 0.2106
- Fig_S10c concentration-response source data, compound alone (replicates) ([5]; Log[Drug] -5.52): 2.6039 and -1.106 and -1.946 and -0.4701 and 1.404 and 2.39 and 0.8979 and 0.0552 and 0.08381
- β-arrestin2 recruitment response at DRD4 (source data, replicate values) ([5]; Log[Drug] -6): 2.086
- Fig_S10c concentration-response source data, compound alone (replicates) ([5]; Log[Drug] -6): 3.584 and -1.188 and -0.584 and -0.6588 and 0.8796 and 1.83 and 0.7762 and 0.03516 and 0.171
- β-arrestin2 recruitment response at DRD4 (source data, replicate values) ([5]; Log[Drug] -6.52): 1.505 and 1.478 and 5.593 and -1.936 and -0.8155 and 0.5983 and 2.508 and 1.037 and -0.4712
- Fig_S10c concentration-response source data, compound alone (replicates) ([5]; Log[Drug] -6.52): 1.007 and 4.325 and 1.323 and -0.8974 and 1.527 and -0.05366 and -0.1047 and 0.03541 and 0.08444
- β-arrestin2 recruitment response at DRD4 (source data, replicate values) ([5]; Log[Drug] -7): 2.288 and 4.238 and 0.7634 and -1.02 and 3.3404 and -2.026 and 1.575 and 0.945 and -0.6741
- Fig_S10c concentration-response source data, compound alone (replicates) ([5]; Log[Drug] -7): 1.079 and -1.731 and -1.221 and -1.369 and 0.6898 and 0.678 and 1.948 and 0.1059 and 0.1355
- β-arrestin2 recruitment response at DRD4 (source data, replicate values) ([5]; Log[Drug] -7.52): 1.649 and 0.1326 and 3.251 and -1.741 and -0.5217 and -0.1424 and -0.5236 and 0.6819 and 0.4869
- β-arrestin2 recruitment response at DRD4 (source data, replicate values) ([5]; Log[Drug] -8): 0.1559 and 0.6003 and -0.215 and 3.989 and -1.66 and -2.089 and 1.626 and 2.253 and 0.1073
- β-arrestin2 recruitment response at DRD4 (source data, replicate values) ([5]; Log[Drug] -8.52): 0.09319 and 0.08781 and 1.238 and -1.884 and -2.01 and 2.354 and 0.733 and 0.839 and 0.1558
- β-arrestin2 recruitment response at DRD4 (source data, replicate values) ([5]; Log[Drug] -9): 1.025 and 0.8745 and 0.8477 and 1.633 and -1.008 and -1.74 and 1.682 and 0.09555 and 2.31
